Experimental data taken from PMC7559897, “Designed Antimicrobial Peptides Against Trauma-Related Cutaneous Invasive Fungal Wound Infections” (Journal of Fungi, 2020).
≈ marks a conversion by molar mass, not a printed value. Square brackets hold non-standard residues; d marks the D form. Peptide text beside a SMILES is read from it. Orn = NCCC[C@H](N)C(=O)O

Legend:
Candida krusei Y-27803 = type: cell-based; details: Y-27803, 24 h
Experimental: (§1) Assays were performed by Trideum Biosciences (Frederick, MD, USA). Isolates were thawed from −80 °C storage and sub-cultured on trypticase soy agar plates at 37 °C prior to experimentation. A single colony was aseptically picked from the agar plate and released in 30 mL trypticase soy broth and incubated overnight at 37 °C incubator. Following which the bacterial culture was diluted to approximately 10^6 colony forming units (CFU)/mL using 2X cation adjusted Mueller–Hinton broth and added to the dAMP solutions (0, 2, 4, 8, 16, 32, 64, and 128 μg/mL) which had been formulated in water at 256 μg/mL and then serially diluted in media on 96-well pates. For fungal evaluation, potato dextrose broth and potato dextrose agar plates were used. The treated cultures were then incubated for 24 h at 37 °C and pathogen growth was measured by absorbance at 600 nm. Four replicas were included for each dAMP concentration. Each MIC was assigned to the lowest test agent concentration resulting in at least three out of four wells showing no growth based on an optical density (OD) reading of <0.1.

[1] = tested on: Fusarium solani NRRL 28548; type: cell-based; details: NRRL 28548, 24 h
Experimental: as §1

E. cloacae 6054 = type: cell-based; details: 6054, 24 h
Experimental: as §1

Candida albicans Y-326 = type: cell-based; details: Y-326, 24 h
Experimental: as §1

[2] = tested on: Aspergillus fumigatus 9648; type: cell-based; details: 9648, 24 h
Experimental: as §1

S. epidermis ATCC 51625 = type: cell-based; details: ATCC 51625, 24 h
Experimental: as §1

E. cloacae 6053 = type: cell-based; details: 6053, 24 h
Experimental: as §1

Candida krusei Y-27825 = type: cell-based; details: Y-27825, 24 h
Experimental: as §1

[3] = tested on: Aspergillus flavus MYA-3651; type: cell-based; details: 24 h
Experimental: as §1

Candida albicans Y-6359 = type: cell-based; details: Y-6359, 24 h
Experimental: as §1

[4] = tested on: Aspergillus flavus MYA-1004; type: cell-based; details: 24 h
Experimental: as §1

[5] = tested on: Mucor circinelloides NRRL 3631; type: cell-based; details: NRRL 3631, 24 h
Experimental: as §1

[6] = tested on: Aspergillus fumigatus 9651; type: cell-based; details: 9651, 24 h
Experimental: as §1

[7] = tested on: Candida parapsilosis Y-1763; type: cell-based; details: Y-1763, 24 h
Experimental: as §1

[8] = tested on: Absidia corymbifera NRRL 6251; type: cell-based; details: NRRL 6251, 24 h
Experimental: as §1

[9] = tested on: Candida parapsilosis Y-1761; type: cell-based; details: Y-1761, 24 h
Experimental: as §1

A. baumannii 6838 = type: cell-based, Acinetobacter baumannii; details: 6838, 24 h
Experimental: as §1

A. baumannii 6043 = type: cell-based, Acinetobacter baumannii; details: 6043, 24 h
Experimental: as §1

A. baumannii ATCC 17978 = type: cell-based, Acinetobacter baumannii; details: ATCC 17978, 24 h
Experimental: as §1

MRSA ATCC 33592 = type: cell-based, Staphylococcus aureus; details: ATCC 33592, 24 h
Experimental: as §1

MRSA 6313 = type: cell-based, Staphylococcus aureus; details: 6313, 24 h
Experimental: as §1

S. aureus B-767 = type: cell-based, Staphylococcus aureus; details: B-767, 24 h
Experimental: as §1

MRSA 6381 = type: cell-based, Staphylococcus aureus; details: 6381, 24 h
Experimental: as §1

S. aureus 6061 = type: cell-based, Staphylococcus aureus; details: 6061, 24 h
Experimental: as §1

[10] = tested on: P. aeruginosa 19660 (Xen5 luciferase); assay: Bioluminescent time-kill assay; type: cell-based, Pseudomonas aeruginosa; details: 8 μg/mL; RP553 at 60 min; bioluminescence
From the text: (§2) Fungal and bacterial strains were obtained from American Type Culture Collection (ATCC, Manassas, VA, USA) or the clinical isolate collection at Trideum Biosciences (Frederick, MD, USA) and are presented in Table 1 and Table 2, respectively. Bioluminescence strains of P. aeruginosa 19660, transfected with the Xen5 luciferase gene, and S. aureus ATCC R 49525TM (Wright), transfected with the Xen36 luciferase gene, were obtained from Perkin Elmer (Waltham, MA, USA).
(§3) Real-time killing of bacterial cells, P. aeruginosa or S. aureus, and mammalian cytotoxicity to assess dAMP off-target toxicity was evaluated using bioluminescent cells. The L929 fibroblast cells (ATCC, Manassas, VA, USA) were made bioluminescent by transfection with a luciferase gene. Cells (1 × 10^4 cells, 100 μL) were plated in 96-well black-walled plates and the candidate dAMPs were 2-fold serially diluted from specified concentrations in growth medium supplemented with 150 μg/mL D-luciferin. Each concentration was performed in triplicate, with the final volume being 200 μL. Imaging was performed at select times after the addition of the dAMP, and compared to concurrently run vehicle-control, using an IVIS Lumina imaging system (Caliper Life Sciences, Inc., Hopkinton, MA, USA). For imaging, the 96-well plate was positioned on the stage (12.5-cm field of view), with an open emission filter, binning of 4, and f-stop 1 and a 1-min exposure time. Monitoring bioluminescence allows assessment of the kinetics of cellular viability as there is a tight correlation between the bioluminescent signal and cell viability. Data analysis was performed using the Living Image software program (version 4.3, Caliper Life Sciences, Inc., Hopkinton, MA, USA).
(§4) Figure 3 RP553, RP556, RP557 rapidly destroy P. aeruginosa and S. aureus. The bioluminescence of viable P. aeruginosa 19,660 and S. aureus 49,525 cells was quantitated in real time with an IVIS Lumina bioimaging system. Data represent the mean ± SE of triplicate replicates from two independent experiments. For some points, the error bars are shorter than the height of the symbols.

[11] = tested on: S. aureus 49525 (Xen36 luciferase); type: cell-based, Staphylococcus aureus; details: 8 μg/mL, 60 min incubation, bioluminescence, triplicates from two independent experiments
From the text: as §2, §3, §4

P. aeruginosa ATCC 27853 = type: cell-based, Pseudomonas aeruginosa; details: ATCC 27853, 24 h
Experimental: as §1

P. aeruginosa ATCC 19660 = type: cell-based, Pseudomonas aeruginosa; details: ATCC 19660, 24 h
Experimental: as §1

P. aeruginosa 6186 = type: cell-based, Pseudomonas aeruginosa; details: 6186, 24 h
Experimental: as §1

K. pneumonia ATCC 10031 = type: cell-based, Klebsiella pneumoniae; details: ATCC 10031, 24 h
Experimental: as §1

K. pneumonia 6069 = type: cell-based, Klebsiella pneumoniae; details: 24 h
Experimental: as §1

[12] = tested on: vulvovaginal candidiasis infection; details: rodent vulvovaginal candidiasis, after three days of daily treatment; cited from earlier work
From the text: The dAMPs RP504, RP554 and RP557 were thus tested for their ability to treat a rodent vulvovaginal candidiasis infection. […] A daily dose with a 2% concentration lowered the CFU/sample by more than 4 logs compared to the con ...

CC[C@H](C)[C@H](NC(=O)[C@H](CCCCN)NC(=O)[C@H](CC(C)C)NC(=O)[C@H](CCCN)NC(=O)[C@H](CC(C)C)NC(=O)[C@H](CCCNC(=N)N)NC(=O)[C@H](C)NC(=O)[C@H](CCCNC(=N)N)NC(=O)[C@@H](NC(=O)[C@H](CCCN)NC(=O)[C@H](Cc1ccccc1)NC(=O)[C@H](CCCNC(=N)N)NC(=O)[C@H](C)NC(=O)[C@H](CCCCN)NC(=O)[C@@H](NC(=O)[C@H](CCCN)NC(=O)[C@@H](N)Cc1ccccc1)[C@@H](C)CC)C(C)C)C(N)=O [RP553] (H-F[Orn]IKARF[Orn]VRARL[Orn]LKI-NH2)
MIC against Candida krusei Y-27803 (Candida krusei Y-27803): 32 µg/mL (≈ 15.4 µM) | MIC against Fusarium solani NRRL 28548 [1]: 2 µg/mL (≈ 0.965 µM) | MIC against E. cloacae 6054 (E. cloacae 6054): 2 µg/mL (≈ 0.965 µM) | MIC against Candida albicans Y-326 (Candida albicans Y-326): 64 µg/mL (≈ 30.9 µM) | MIC against Aspergillus fumigatus 9648 [2]: 128 µg/mL (≈ 61.8 µM) | MIC against S. epidermis ATCC 51625 (S. epidermis ATCC 51625): 2 µg/mL (≈ 0.965 µM) | MIC against E. cloacae 6053 (E. cloacae 6053): 4 µg/mL (≈ 1.93 µM) | MIC against Candida krusei Y-27825 (Candida krusei Y-27825): 32 µg/mL (≈ 15.4 µM) | MIC against Aspergillus flavus MYA-3651 [3]: 128 µg/mL (≈ 61.8 µM) | MIC against Candida albicans Y-6359 (Candida albicans Y-6359): 64 µg/mL (≈ 30.9 µM) | MIC against Aspergillus flavus MYA-1004 [4]: 128 µg/mL (≈ 61.8 µM) | MIC against Mucor circinelloides NRRL 3631 [5]: 64 µg/mL (≈ 30.9 µM) | MIC against Aspergillus fumigatus 9651 [6]: 64 µg/mL (≈ 30.9 µM) | MIC against Candida parapsilosis Y-1763 [7]: 32 µg/mL (≈ 15.4 µM) | MIC against Absidia corymbifera NRRL 6251 [8]: 2 µg/mL (≈ 0.965 µM) | MIC against Candida parapsilosis Y-1761 [9]: 64 µg/mL (≈ 30.9 µM) | MIC against A. baumannii 6838 (A. baumannii 6838): 8 µg/mL (≈ 3.86 µM) | MIC against A. baumannii 6043 (A. baumannii 6043): 16 µg/mL (≈ 7.72 µM) | MIC against A. baumannii ATCC 17978 (A. baumannii ATCC 17978): 4 µg/mL (≈ 1.93 µM) | MIC against MRSA ATCC 33592 (MRSA ATCC 33592): 4 µg/mL (≈ 1.93 µM) | MIC against MRSA 6313 (MRSA 6313): 4 µg/mL (≈ 1.93 µM) | MIC against S. aureus B-767 (S. aureus B-767): 4 µg/mL (≈ 1.93 µM) | MIC against MRSA 6381 (MRSA 6381): 8 µg/mL (≈ 3.86 µM) | MIC against S. aureus 6061 (S. aureus 6061): 8 µg/mL (≈ 3.86 µM) | P. aeruginosa killing (in words) [10]: nearly all | S. aureus killing [11]: 14% | MIC against P. aeruginosa ATCC 27853 (P. aeruginosa ATCC 27853): 4 µg/mL (≈ 1.93 µM) | MIC against P. aeruginosa ATCC 19660 (P. aeruginosa ATCC 19660): 8 µg/mL (≈ 3.86 µM) | MIC against P. aeruginosa 6186 (P. aeruginosa 6186): 8 µg/mL (≈ 3.86 µM) | MIC against K. pneumonia ATCC 10031 (K. pneumonia ATCC 10031): 4 µg/mL (≈ 1.93 µM) | MIC against K. pneumonia 6069 (K. pneumonia 6069): 4 µg/mL (≈ 1.93 µM)

CC[C@H](C)[C@H](NC(=O)[C@H](CCCN)NC(=O)[C@H](C)NC(=O)[C@H](CCCN)NC(=O)[C@H](CC(C)C)NC(=O)[C@H](CCCN)NC(=O)[C@@H](NC(=O)[C@H](CCCN)NC(=O)[C@@H](NC(=O)[C@H](CCCN)NC(=O)[C@H](C)NC(=O)[C@H](CCCN)NC(=O)[C@H](CC(C)C)NC(=O)[C@H](CCCN)NC(=O)[C@@H](N)Cc1ccccc1)[C@@H](C)CC)C(C)C)C(=O)N[C@@H](CCCN)C(=O)N[C@@H](CC(C)C)C(N)=O [RP554] (H-F[Orn]L[Orn]A[Orn]I[Orn]V[Orn]L[Orn]A[Orn]I[Orn]L-NH2)
MIC against Candida krusei Y-27803 (Candida krusei Y-27803): 16 µg/mL (≈ 8.49 µM) | MIC against Fusarium solani NRRL 28548 [1]: 2 µg/mL (≈ 1.06 µM) | MIC against E. cloacae 6054 (E. cloacae 6054): 2 µg/mL (≈ 1.06 µM) | MIC against Candida albicans Y-326 (Candida albicans Y-326): 32 µg/mL (≈ 17 µM) | MIC against Aspergillus fumigatus 9648 [2]: 64 µg/mL (≈ 34 µM) | MIC against S. epidermis ATCC 51625 (S. epidermis ATCC 51625): 2 µg/mL (≈ 1.06 µM) | MIC against E. cloacae 6053 (E. cloacae 6053): 4 µg/mL (≈ 2.12 µM) | MIC against Candida krusei Y-27825 (Candida krusei Y-27825): 16 µg/mL (≈ 8.49 µM) | MIC against Aspergillus flavus MYA-3651 [3]: 32 µg/mL (≈ 17 µM) | MIC against Candida albicans Y-6359 (Candida albicans Y-6359): 32 µg/mL (≈ 17 µM) | MIC against Aspergillus flavus MYA-1004 [4]: 64 µg/mL (≈ 34 µM) | MIC against Mucor circinelloides NRRL 3631 [5]: 32 µg/mL (≈ 17 µM) | MIC against Aspergillus fumigatus 9651 [6]: 32 µg/mL (≈ 17 µM) | MIC against Candida parapsilosis Y-1763 [7]: 8 µg/mL (≈ 4.25 µM) | MIC against Absidia corymbifera NRRL 6251 [8]: 4 µg/mL (≈ 2.12 µM) | MIC against Candida parapsilosis Y-1761 [9]: 16 µg/mL (≈ 8.49 µM) | MIC against A. baumannii 6838 (A. baumannii 6838): 4 µg/mL (≈ 2.12 µM) | MIC against A. baumannii 6043 (A. baumannii 6043): 8 µg/mL (≈ 4.25 µM) | MIC against A. baumannii ATCC 17978 (A. baumannii ATCC 17978): 4 µg/mL (≈ 2.12 µM) | MIC against MRSA ATCC 33592 (MRSA ATCC 33592): 32 µg/mL (≈ 17 µM) | MIC against MRSA 6313 (MRSA 6313): 32 µg/mL (≈ 17 µM) | MIC against S. aureus B-767 (S. aureus B-767): 4 µg/mL (≈ 2.12 µM) | MIC against MRSA 6381 (MRSA 6381): 32 µg/mL (≈ 17 µM) | MIC against S. aureus 6061 (S. aureus 6061): 32 µg/mL (≈ 17 µM) | MIC against P. aeruginosa ATCC 27853 (P. aeruginosa ATCC 27853): 4 µg/mL (≈ 2.12 µM) | MIC against P. aeruginosa ATCC 19660 (P. aeruginosa ATCC 19660): 8 µg/mL (≈ 4.25 µM) | MIC against P. aeruginosa 6186 (P. aeruginosa 6186): 8 µg/mL (≈ 4.25 µM) | MIC against K. pneumonia ATCC 10031 (K. pneumonia ATCC 10031): 8 µg/mL (≈ 4.25 µM) | MIC against K. pneumonia 6069 (K. pneumonia 6069): 16 µg/mL (≈ 8.49 µM) | reduction of CFU/tissue sample [12]: ≥ 2.5 logs
